How the values were obtained:
Splenic B cells = experiment: Spleen cell / splenic B cell proliferation, 3H-thymidine incorporation; format: cell-based, mouse
Description: (§1) Spleen cell cultures were established from naive BALB/c mice and incubated for 4 days in the presence of stimulus and drug. Cultures were pulsed for 4 hours with 3H-thymidine and harvested. A variety of experiments were performed in an effort to determine the effect of the benzimidazole compounds on cellular proliferation. These experiments ultimately measured ^3H-thymidine incorporation into proliferating cell DNA. The specific procedure varied with the cells and the stimuli. Cells derived from mouse spleen were cultured at 3 million per ml; cell lines were seeded at 0.1 to 1 million per ml. Splenic B cells were isolated by T cell depletion and stimulated with phorbol myristate acetate (PMA) (10 ng/ml) plus ionomycin (100 nM), or IL-4 (10 ng/ml) plus anti-CD40 Ab (100 ng/ml). T cells were depleted prior to culture by incubating spleen cells first with a cocktail of anti-Thyl ascites (10%), anti-CD4 Ab (0.5 μg/ml) and anti-CD8 Ab (0.5 μg/ml), followed by guinea pig complement (adsorbed). Cell lines were unstimulated or stimulated with Human Epidermal Growth Factor (EGF) (100 ng/ml). All cells were cultured in 96-well plates for 2–3 days and pulsed for 6 to 14 hours with 50 μl of 3H-thymidine (50 μCi/ml).

cytokine release = experiment: ConA-stimulated cytokine release; format: cell-based
ER-positive cell lines = experiment: Proliferation of ER-positive breast cancer cell lines; format: cell-based; settings: in vitro
Description: as §1, with “A” for “Spleen cell cultures were established from naive BALB/c mice and incubated for 4 days in the presence of stimulus and drug. Cultures were pulsed for 4 hours with 3H-thymidine and harvested. A”, “μCi/ml). A similar approach was used to establish selectivity of the anti-proliferative activity by testing a battery of tumor lines derived from a variety of tissues, mostly human in origin. An attempt was made to generate proliferation data from at least 2 cell lines from each tissue selected. […]” for “μCi/ml).”

IgE responses = experiment: In vitro IgE responses to IL-4/anti-CD40 Ab; format: cell-based
[1] = test system: EGF-responsive cell lines; experiment: Proliferation of EGF-responsive (ER-negative/EGFR-positive) breast cancer cell lines; format: cell-based; settings: in vitro
Description: as §1, with “A” for “Spleen cell cultures were established from naive BALB/c mice and incubated for 4 days in the presence of stimulus and drug. Cultures were pulsed for 4 hours with 3H-thymidine and harvested. A”, “μCi/ml). A similar approach was used to establish selectivity of the anti-proliferative activity by testing a battery of tumor lines derived from a variety of tissues, mostly human in origin. An attempt was made to generate proliferation data from at least 2 cell lines from each tissue selected. […]” for “μCi/ml).”

[2] = test system: tumor lines derived from a variety of tissues; experiment: Proliferation of a battery of tumor lines from a variety of tissues; format: cell-based, mostly human; settings: in vitro
Description: as §1, with “A” for “Spleen cell cultures were established from naive BALB/c mice and incubated for 4 days in the presence of stimulus and drug. Cultures were pulsed for 4 hours with 3H-thymidine and harvested. A”, “μCi/ml). A similar approach was used to establish selectivity of the anti-proliferative activity by testing a battery of tumor lines derived from a variety of tissues, mostly human in origin. An attempt was made to generate proliferation data from at least 2 cell lines from each tissue selected. […]” for “μCi/ml).”

[3] = test system: murine M12.4.1 lymphoma cells; experiment: M12.4.1 lymphoma cell proliferation, 3H-thymidine incorporation; format: cell-based
Description: as §1, with “A” for “Spleen cell cultures were established from naive BALB/c mice and incubated for 4 days in the presence of stimulus and drug. Cultures were pulsed for 4 hours with 3H-thymidine and harvested. A”, “μCi/ml). In tumor cells, the results with splenic lymphocytes led to a further analysis of cellular proliferation by measuring the growth of tumor cells in the presence of these drugs. The initial analysis was performed with murine M12.4.1 lymphoma cells, either un-stimulated or stimulated with IL-4/anti-CD40 Ab. […]” for “μCi/ml).”

In the case of `O=C(Nc1ccccn1)c1ccc2[nH]c(-c3ccc(NC(=O)C45C[C@H]6C[C@@H](C4)C[C@@H](C5)C6)cc3)nc2c1` [Compound I.82], the “anti-proliferative activity to T and B lymphocytes exposed to a variety of immunogenic stimuli” value (Splenic B cells; in vitro) is reported as “highly potent”, the “spleen cell proliferation responses (FIG. 1)” value (Splenic B cells; naive BALB/c mice, 4 days with stimulus and drug, 4 hours 3H-thymidine pulse) is reported as “suppression of spleen cell proliferation responses” and the “B cell proliferation response to IL-4/anti-CD40 Ab” value (Splenic B cells; spleen cells, IL-4 (10 ng/ml) plus anti-CD40 Ab (100 ng/ml)) is reported as “suppressed”. The “B cell proliferation response to PMA/ionomycin” value (Splenic B cells; spleen cells, PMA (10 ng/ml) plus ionomycin (100 nM)) was “suppressed”, the ConA-stimulated cytokine release (cytokine release) was “inhibition” and the “number of ER-positive cell lines potently inhibited” value (ER-positive cell lines) was 2 of the 5. The “in vitro IgE responses to IL-4/anti-CD40 Ab” value (IgE responses) was “suppressed in vitro IgE responses”, the “proliferation of all EGF-responsive cell lines” value [1] was “potently inhibited” and the “sensitivity of tumor cell lines (proliferation)” value [2] was “a number of tumor cell lines are sensitive”. The “proliferation of M12.4.1 cells, potency” value ([3]; cultured with IL-4/anti-CD40 Ab) was “increased” and the “proliferation of M12.4.1 cells” value ([3]; un-stimulated) was “suppressed the proliferation of M12.4.1 cells but with lower potency”.
